Experimental data taken from article PMC6930638, “The Masked Polar Group Incorporation (MPGI) Strategy in Drug Design: Effects of Nitrogen Substitutions on Combretastatin and Isocombretastatin Tubulin Inhibitors” (Molecules, 2019).
pIC50: −log10 of the molar value. Converted amounts (≈) assume the structure as drawn.

Tests used:
[1] = test system: rat primary pancreatic cells; test: Toxicity against rat primary pancreatic cells (MTT); details: for live cells with respect to the non-treated control (means ± S.E.M.): rat, 7 h, pH 7.4
Protocol: The toxicity of the compounds against rat primary pancreatic cells was evaluated by the MTT protocol (Table 2). […] Sodium taurocholate (NaTc) was also used at high concentrations as a model of acute pancreatitis in vitro.
Rat primary pancreatic cells were isolated as previously described. Afterwards, pancreatic cells were resuspended in Na-HEPES solution (pH 7.4) containing 14 mM glucose, 1% essential amino acid mixture, 1% (w/v) BSA, 0.01% (w/v) STI, 0.5 mM CaCl2 and incubated (5% CO2, at 37 °C) for 7 h in the absence (non-treated control) or the presence of compounds at different concentrations. After the treatment, cells were incubated (5% CO2, at 37 °C) with 0.5 mg/mL MTT for 2 h and the formazan crystals were solubilized with DMSO (v/v). The optical density was read at 570 nm with a reference wavelength of 630 nm. Non-treated cell viability was set as 100%.

[2] = test system: MCF-7 breast adenocarcinoma; test: MTT cell antiproliferative assay, MCF-7; format: cell-based; details: Homo sapiens, MCF7, 72 h
[3] = Aqueous solubility determination (shake flask, UV); format: physicochemical; details: phosphate buffer, pH 7, aqueous buffer, thermodynamic from solid, phosphate buffer pH 7.0, 48 h stirring, filtered, UV; read-out: Solub.
Protocol: One of the expected effects of introducing nitrogen substitutions on combretastatin and isocombretastatin analogues, is an increase in aqueous solubility. Solubility was spectrophotometrically determined in phosphate buffer at pH 7. UV absorbance of soluble compounds was measured after shaking and microfiltration. […] In addition, aqueous solubilities of the corresponding ammonium salts are over 1 mg/mL.
This great improvement is probably due to the symmetry reduction, combined with an increased polarity for 2g.
Compounds were stirred in a solution of phosphate buffer at pH 7.0 (1–2 mg of compound in 300 µL of buffer) during 48 h. After that, the samples were filtered over a […] filter to discard the insoluble residues. In order to determine the maximum wavelength of absorbance for each compound, a scan between 270 and 400 nm was performed. Once the wavelength was selected, a calibration line was performed and the concentration of the stirred and filtered samples was measured.

Row | Structure (SMILES) | toxicity against primary pancreatic cultured cells [1] | live cells with respect to the non-treated control (means ± S.E.M.) ([1]; 0.25 µM) | live cells with respect to the non-treated control (means ± S.E.M.) ([1]; 0.5 µM) | pIC50 [2] | solubility at 48 h [3]
1 | COc1cc(C(=O)c2cccc(N(C)C)c2)cc(OC)c1OC [Compound 1f, (3-(Dimethylamino)phenyl)(3,4,5-trimethoxyphenyl)methanone] | very low toxicity | 106.59 ± 17.60% | 95.97 ± 10.55% | 6.49 | 11 µg/mL (≈ 34.9 µM)
2 | COc1cc(C(=O)c2ccnc(N3CCCC3)c2)cc(OC)c1OC [Compound 1h, (2-(Pyrrolidin-1-yl)pyridin-4-yl)(3,4,5-trimethoxyphenyl)methanone] | very low toxicity | 103.84 ± 9.20% | 102.59 ± 14.73% | 7.77 | 20 µg/mL (≈ 58.4 µM)
3 | C=C(c1ccc(N(C)C)nc1)c1cc(OC)c(OC)c(OC)c1 [Compound 3b, N,N-Dimethyl-5-(1-(3,4,5-trimethoxyphenyl)vinyl)pyridin-2-amine] | very low toxicity | 112.81 ± 19.30% | 94.06 ± 13.13% | 7.09 | 13.5 µg/mL (≈ 42.9 µM)
4 | COc1cc(C=Cc2ccc(N(C)C)nc2)cc(OC)c1OC [Compound 8b, N,N-dimethyl-5-(3,4,5-trimethoxystyryl)pyridin-2-amine] | very low toxicity | 94.31 ± 11.83% | 91.65 ± 13.88% | 7.20 | 44 µg/mL (≈ 140 µM)
